Laboratory results taken from ChEMBL document CHEMBL3507680, “University of Dundee, Gates Library screen for HepG2 cell viability”.

Assay: Human HepG2 cell viability assay in 384 well format
Format: toxicity, cell-based
Parameters: dose 125 nL, time 70.5 hour; concentration not given beside the values
Details: HepG2 cells, read-out: Inhibition

Compound: Cc1cc(Cl)c2c(c1)C1(NC(=O)c3cccnc3N1)C(=O)N2 (configuration not stated)
- cytotoxicity at 70.5 h: -1.82%

Compound: CC1(C)CN(Cc2csc(CS(C)(=O)=O)n2)Cc2ccccc21
- cytotoxicity at 70.5 h: -0.447%

Compound: NC(=O)C1(CNCc2csc(-c3cccs3)n2)CCOCC1
- cytotoxicity at 70.5 h: -6.81%

Compound: O=C(NCc1nnc2n1CCCCC2)N1CCC2(CCCCC2)C1
- cytotoxicity at 70.5 h: -6.29%

Compound: CCN(C(=O)CCn1cccn1)C1CC1
- cytotoxicity at 70.5 h: -5.79%

Compound: CC(Cn1cccn1)NCc1csc(-c2ccc(F)cc2)n1 (configuration not stated)
- cytotoxicity at 70.5 h: 5.69%

Compound: OC1(CNC2CCN(c3ccccn3)CC2)CCc2ccccc21 (configuration not stated)
- cytotoxicity at 70.5 h: -6.83%

Compound: CSC1(CNC(=O)N(C)Cc2ccc(Cl)s2)CCOCC1
- cytotoxicity at 70.5 h: 30.6%

Compound: O=C(COCc1ccccc1Cl)N1CCN(c2ncccn2)CC1
- cytotoxicity at 70.5 h: 6.02%

Compound: CO[C@H]1CCN(S(=O)(=O)c2cccs2)[C@H]1Cc1ccncc1
- cytotoxicity at 70.5 h: -6.14%

Compound: Cn1ncc2c1C(COCC1CC1)CN(Cc1ccco1)C2 (configuration not stated)
- cytotoxicity at 70.5 h: 4.98%

Compound: CN(C)C(=O)[C@H]1C[C@H]2OCC[C@H]2N(Cc2ccccn2)C1
- cytotoxicity at 70.5 h: -2.93%

Compound: Cc1noc([C@H]2C[C@H]3OCC[C@H]3N(Cc3ccncc3)C2)n1
- cytotoxicity at 70.5 h: -7.52%

Compound: c1ccc(CN2CCc3ncnc(-c4cncnc4)c3CC2)nc1
- cytotoxicity at 70.5 h: 21.8%

Compound: O=C(N1CCCC1)N1CCn2c(Cn3cccn3)cnc2C1
- cytotoxicity at 70.5 h: -0.231%

Compound: O=C1CC(c2cccnc2)C2(CCN(C(=O)N3CCOCC3)CC2)N1 (configuration not stated)
- cytotoxicity at 70.5 h: -12.4%

Compound: O=C1CC(c2ccncc2)C2(CCN(C(=O)c3ccnnc3)CC2)N1 (configuration not stated)
- cytotoxicity at 70.5 h: -8.48%

Compound: Cc1nc(CN2C(=O)CC[C@@H]3[C@H]2CCN3C(=O)C2CCOCC2)cs1
- cytotoxicity at 70.5 h: -7.34%

Compound: Cc1nc(CN2C(=O)CC[C@@H]3[C@H]2CCN3C(=O)c2ccno2)cs1
- cytotoxicity at 70.5 h: -1.87%

Compound: CN(C)C(=O)N1CCn2cc(CNC(=O)CC3CC3)nc2C1
- cytotoxicity at 70.5 h: -0.867%

Compound: O=C(c1ccncc1)N1CCc2c(COCC3CC3)cncc2C1
- cytotoxicity at 70.5 h: 0.493%

Compound: O=C(c1cnccn1)N1CCc2c(COCC3CC3)cncc2C1
- cytotoxicity at 70.5 h: -7.37%

Compound: COCC1CN(C(=O)Cc2ccc(F)cc2)Cc2ccnn2C1 (configuration not stated)
- cytotoxicity at 70.5 h: -5.52%

Compound: O=C1CC(c2ccccc2)C2(CCN(C(=O)c3cnccn3)CC2)N1 (configuration not stated)
- cytotoxicity at 70.5 h: -8.06%

Compound: Cc1cccc(CN2CCn3cc(CNC(=O)CC4CC4)nc3C2)n1
- cytotoxicity at 70.5 h: -5.24%

Compound: Cc1noc(C)c1CN1CC[C@H](OCC2CC2)[C@@H](Cc2ccccc2)C1
- cytotoxicity at 70.5 h: 3.46%

Compound: c1ccc(CN2C[C@@H]3OCCN(c4cccnc4)[C@@H]3C2)nc1
- cytotoxicity at 70.5 h: -12.2%

Compound: Fc1ccccc1CN1C[C@@H]2OCCN(c3ncccn3)[C@@H]2C1
- cytotoxicity at 70.5 h: -13.2%

Compound: Cn1ccnc1CN1C[C@@H]2OCCN(c3ncccn3)[C@@H]2C1
- cytotoxicity at 70.5 h: -16.1%

Compound: O=C(c1ccco1)N1CCO[C@@H]2CNCC[C@@H]2C1
- cytotoxicity at 70.5 h: 32.1%

Compound: CCC(NC(=O)c1cc(CC(C)C)nn1C)c1cccc(C)n1 (configuration not stated)
- cytotoxicity at 70.5 h: 8.39%

Compound: Cc1nc(N(C)C)nc(N(C)CCc2ccncc2)c1C
- cytotoxicity at 70.5 h: -15.2%

Compound: Cn1ccc2c(-c3cc(N)nc(N4CCOCC4)n3)ccnc21
- cytotoxicity at 70.5 h: 1.46%

Compound: CCCc1nnc(N2CCN(c3ccccc3F)CC2)o1
- cytotoxicity at 70.5 h: 13.5%

Compound: Nc1nc(CCCNC(=O)C2CCCN(Cc3ccco3)C2)cs1 (configuration not stated)
- cytotoxicity at 70.5 h: 8.32%

Compound: O=C(C1CCCN(C2CCOCC2)C1)N1CCc2ncccc2C1 (configuration not stated)
- cytotoxicity at 70.5 h: -4.26%

Compound: Cc1cccnc1CN1CCN(c2noc(-c3ccccc3)n2)CC1
- cytotoxicity at 70.5 h: 7.94%

Compound: CC(C)Nc1ccnc(N2Cc3cnc(C(C)(C)C)nc3C2)n1
- cytotoxicity at 70.5 h: 17.3%

Compound: CCC(C(=O)NC1CCN(S(C)(=O)=O)CC1)n1cccn1 (configuration not stated)
- cytotoxicity at 70.5 h: -7.66%

Compound: CC(C)n1cnnc1CN1C(=O)CCc2ccccc21
- cytotoxicity at 70.5 h: -1.8%

Compound: c1csc(CN2CCc3c(CNc4nncs4)cncc3C2)c1
- cytotoxicity at 70.5 h: -9.12%

Compound: c1cnc(NCc2cncc3c2CCN(Cc2cccnc2)C3)nc1
- cytotoxicity at 70.5 h: -5.03%

Compound: COC1COC2(CCN(c3ccc(C#N)cc3)CC2)C1 (configuration not stated)
- cytotoxicity at 70.5 h: -5.93%

Compound: CCOCC(=O)N1Cc2nccn2CC(CN2CCCC2)C1 (configuration not stated)
- cytotoxicity at 70.5 h: -11.5%

Compound: O=C1CO[C@@H]2CN(C3CCOCC3)C[C@H]2N1Cc1cccc(F)c1
- cytotoxicity at 70.5 h: -6.55%

Compound: Cc1nc(CN2CCc3ncnc(-c4ccsc4)c3CC2)cs1
- cytotoxicity at 70.5 h: -9.47%

Compound: Cc1nc(CN2CCc3ncnc(C4CC4)c3CC2)cs1
- cytotoxicity at 70.5 h: -2.07%

Compound: CN(C)C(=O)[C@H]1C[C@H]2OCC[C@H]2N(Cc2ccc3c(c2)OCO3)C1
- cytotoxicity at 70.5 h: 0.648%

Compound: O=C([C@H]1C[C@H]2OCC[C@H]2N(Cc2ccoc2)C1)N1CCCO1
- cytotoxicity at 70.5 h: -5.69%

Compound: Cc1noc([C@@H]2C[C@H]3OCC[C@H]3N(CC3CCCC3)C2)n1
- cytotoxicity at 70.5 h: -10.4%

Compound: CN(C)C(=O)COC1COC2(CCN(c3cccc(F)c3)CC2)C1 (configuration not stated)
- cytotoxicity at 70.5 h: 2.89%

Compound: Cc1cc(CN2C[C@@H]3COC[C@]3(CNS(C)(=O)=O)C2)no1
- cytotoxicity at 70.5 h: 1.21%

Compound: COCCN1C(=O)CC[C@@H]2[C@H]1CCN2Cc1ccc(C)s1
- cytotoxicity at 70.5 h: -11.5%

Compound: Cc1cncc(C(=O)N2CCC3(CC2)NC(=O)CC3c2ccccc2)c1 (configuration not stated)
- cytotoxicity at 70.5 h: 17.7%

Compound: O=C(c1ccncc1F)N1CCc2ncnc(C3CC3)c2CC1
- cytotoxicity at 70.5 h: -1.77%

Compound: Cc1cccc(CN2C(=O)CC[C@@H]3[C@H]2CCN3C(=O)c2ccsc2)n1
- cytotoxicity at 70.5 h: -12.3%

Compound: CCS(=O)(=O)NC[C@]12COC[C@H]1CN(Cc1sccc1C)C2
- cytotoxicity at 70.5 h: -0.717%

Compound: COCC1CN(C(=O)Cc2cccc(F)c2)Cc2ccnn2C1 (configuration not stated)
- cytotoxicity at 70.5 h: -5.69%

Compound: O=C(c1ccsc1)N1C[C@@H]2CCN(c3cccnc3)C[C@@H]2C1
- cytotoxicity at 70.5 h: -6.89%

Compound: CCn1cc2c(n1)CN(Cc1ccc(C)o1)CC2COCC1CC1 (configuration not stated)
- cytotoxicity at 70.5 h: -5.09%

Compound: CCn1cc2c(n1)CN(Cc1sccc1C)CC2COCC1CC1 (configuration not stated)
- cytotoxicity at 70.5 h: -7.71%

Compound: CN(C)C(=O)N1Cc2ncn(C)c2C(COCC2CCOCC2)C1 (configuration not stated)
- cytotoxicity at 70.5 h: -11.9%

Compound: Cn1cncc1CN1C[C@@H]2OCCN(c3ncccn3)[C@@H]2C1
- cytotoxicity at 70.5 h: -9.56%

Compound: O=C(c1ccc(O)cc1)N1C[C@@H]2CCN(c3cccnc3)C[C@@H]2C1
- cytotoxicity at 70.5 h: 22.7%

Compound: CC(C)CN1C(=O)C[C@@H]2[C@@H]1CCN2Cc1cccc(C#N)c1
- cytotoxicity at 70.5 h: 2.48%

Compound: Cc1noc([C@H]2C[C@H]3OCC[C@H]3N(Cc3scnc3C)C2)n1
- cytotoxicity at 70.5 h: -7.11%

Compound: CN1CC(=O)N(c2cccc(F)c2)CC12CCN(CCO)C2 (configuration not stated)
- cytotoxicity at 70.5 h: -5.44%

Compound: c1csc(CN2CCCn3cnc(CN4CCCC4)c3C2)c1
- cytotoxicity at 70.5 h: -2.7%

Compound: CN(Cc1cccnc1)CC1CN(C(=O)C2CC2)Cc2nccn2C1 (configuration not stated)
- cytotoxicity at 70.5 h: -7.48%

Compound: Cc1cccc(CN2C(=O)CC[C@H]3[C@@H]2CCN3CC(=O)N(C)C)n1
- cytotoxicity at 70.5 h: -7.14%

Compound: Cn1cc(CN2C[C@@H]3OCCN(c4ncccn4)[C@@H]3C2)cn1
- cytotoxicity at 70.5 h: 1.07%

Compound: O=C1[C@H]2CN(Cc3ccoc3)C[C@H]2CN1Cc1cccnc1
- cytotoxicity at 70.5 h: -11.8%

Compound: c1cnc(N2CCO[C@H]3CN(Cc4ccsc4)C[C@H]32)nc1
- cytotoxicity at 70.5 h: -14.2%

Compound: COCC1CN(Cc2c(C)noc2C)Cc2ccnn2C1 (configuration not stated)
- cytotoxicity at 70.5 h: -9.74%

Compound: c1ccc(COC[C@@H]2CCC[C@]23CN(Cc2nccs2)CCO3)nc1
- cytotoxicity at 70.5 h: 5.78%

Compound: c1ccc(CN2CCn3c(Cn4cncn4)cnc3C2)nc1
- cytotoxicity at 70.5 h: -10.2%

Compound: COCCNC(=O)C1CN(Cc2cccnc2)Cc2ccnn2C1 (configuration not stated)
- cytotoxicity at 70.5 h: -13.8%
